Assays:
[1] = Rat pharmacokinetic evaluation test; format: in vivo; details: Sprague-Dawley (SD), po, SD rats, male, p.o. 5 mg/kg, plasma
Procedure: SD rats were used as test animals to study the pharmacokinetic behavior of the compounds of the present invention in the rat body (plasma) after oral administration at a dose of 5 mg/kg.
2.2 Experimental Animals: 3 SD Rats/Group, Male, from Shanghai Jiesijie Experimental Animal Co., Ltd., Animal Production License Number (SCXK (Shanghai) 2013-0006 No. 311620400001794).
• Oral administration drug preparation: 20% solutol HS15 in 0.5% MC (methylcellulose)
20 g of a Solutol HS15 solid and 0.5 g of a MC solid powder were weighed and dissolved in 80 mL of purified water, and the mixture was vortexed, mixed until uniform, and subjected to ultrasound treatment to obtain a clear solution of 20% solutol HS15 in 0.5% MC.
The example compound was weighed into a 20 mL glass bottle, the solution was added thereto and the mixture was subjected to ultrasound treatment for 10 minutes to obtain a clear solution with a concentration of 0.5 mg/mL.
3 male SD rats were administered p.o. respectively after the 3 male SD rats were fasted overnight; the p.o. dose was 5 mg/kg and the administration volume was 10 mL/kg.
Blood collection: Before and after administration to rats, 0.2 mL of blood was collected from the jugular vein at 0.25, 0.5, 1, 2, 4, 6, 8 and 24 h, and placed in an EDTA-K2 anticoagulation tube, which was centrifuged at 6000 rpm at 4° C. for 6 min to separate plasma which was stored at −80° C.; the rats were fed 4 h after administration.
1) 160 μL of acetonitrile was added to 40 μL of plasma sample for precipitation, mixed and centrifuged at 3500×g for 5 to 20 min.
2) the treated supernatant solution was taken and subjected to LC/MS/MS to analyze the concentrations of the test compounds. LC/MS/MS analysis instrument: AB Sciex API 4000 Qtrap.
• Liquid phase conditions: Shimadzu LC-20AD pump • Chromatographic column: Agilent ZORBAX XDB-C18 (50×2.1 mm, 3.5 μm) mobile phase: liquid A is 0.1% aqueous formic acid solution, liquid B is acetonitrile • Flow rate: 0.4 mL/min • Elution time: 0-4.0 min, the eluent is as follows:
The main pharmacokinetic parameters were calculated using WinNonlin 6.1.

[2] = molecular target: Ba/F3 EGFR Del19/C797S cells (Homo sapiens, UniProt P00533, C797S, cells depend on it, form not given); assay: Cell proliferation inhibition (Cell Titer-Glo), Ba/F3 EGFR Del19/C797S; format: cell-based, mouse; details: 72 hours, CellTiter-Glo, read-out: Ba/F3 EGFR Del19/C797S IC50
Chain of Ba/F3 EGFR Del19/C797S cells (P00533 with tags, fused parts or gaps DEL746-750/C797S, form open): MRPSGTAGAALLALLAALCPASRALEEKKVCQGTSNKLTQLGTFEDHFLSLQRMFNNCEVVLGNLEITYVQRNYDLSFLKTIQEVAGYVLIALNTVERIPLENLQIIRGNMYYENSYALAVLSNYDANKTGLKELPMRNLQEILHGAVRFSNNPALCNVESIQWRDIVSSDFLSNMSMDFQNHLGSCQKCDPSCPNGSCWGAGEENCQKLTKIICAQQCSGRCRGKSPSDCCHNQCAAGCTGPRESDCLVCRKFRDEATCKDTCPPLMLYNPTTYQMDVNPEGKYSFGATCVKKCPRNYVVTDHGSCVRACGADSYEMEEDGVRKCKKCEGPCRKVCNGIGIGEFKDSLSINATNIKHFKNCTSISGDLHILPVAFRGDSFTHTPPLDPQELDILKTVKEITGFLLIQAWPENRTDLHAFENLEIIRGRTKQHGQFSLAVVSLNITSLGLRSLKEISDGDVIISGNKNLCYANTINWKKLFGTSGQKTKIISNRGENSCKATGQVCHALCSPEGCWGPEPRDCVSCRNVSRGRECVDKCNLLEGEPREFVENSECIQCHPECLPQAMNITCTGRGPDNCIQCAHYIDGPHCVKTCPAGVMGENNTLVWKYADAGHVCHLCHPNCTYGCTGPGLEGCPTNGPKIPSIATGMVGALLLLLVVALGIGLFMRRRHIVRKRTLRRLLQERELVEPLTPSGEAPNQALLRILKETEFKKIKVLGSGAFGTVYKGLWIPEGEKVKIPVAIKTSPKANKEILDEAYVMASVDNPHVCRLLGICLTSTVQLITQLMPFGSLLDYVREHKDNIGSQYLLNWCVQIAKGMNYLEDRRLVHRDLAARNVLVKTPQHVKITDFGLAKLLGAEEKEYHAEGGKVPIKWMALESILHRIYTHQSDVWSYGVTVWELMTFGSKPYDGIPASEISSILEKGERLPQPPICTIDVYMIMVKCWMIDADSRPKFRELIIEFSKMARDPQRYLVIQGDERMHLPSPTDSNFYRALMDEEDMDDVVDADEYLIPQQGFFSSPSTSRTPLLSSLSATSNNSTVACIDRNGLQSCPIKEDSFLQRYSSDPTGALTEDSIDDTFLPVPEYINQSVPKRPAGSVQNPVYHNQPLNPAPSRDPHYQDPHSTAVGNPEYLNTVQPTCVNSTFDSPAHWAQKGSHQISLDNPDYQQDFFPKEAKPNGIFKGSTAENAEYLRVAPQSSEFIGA
In short: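 Ba/F3 lines carrying the EGFR mutants, grown in RPMI 1640 with 10% FBS, were seeded overnight then exposed to compound for 72 h at 37 °C, 5% CO2. Viability by CellTiter-Glo luminescence; IC50 from nonlinear regression of inhibition versus concentration.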

[3] = molecular target: Ba/F3 EGFR Del19/T790M/C797S cells (Homo sapiens, UniProt P00533, T790M/C797S, cells depend on it, form not given); assay: Cell proliferation inhibition (Cell Titer-Glo), Ba/F3 EGFR Del19/T790M/C797S; format: cell-based, mouse; details: 72 hours, CellTiter-Glo, read-out: Ba/F3 EGFR Del19_T790M_C797S IC50
Chain of Ba/F3 EGFR Del19/T790M/C797S cells (P00533 with tags, fused parts or gaps DEL746-750/T790M/C797S, form open): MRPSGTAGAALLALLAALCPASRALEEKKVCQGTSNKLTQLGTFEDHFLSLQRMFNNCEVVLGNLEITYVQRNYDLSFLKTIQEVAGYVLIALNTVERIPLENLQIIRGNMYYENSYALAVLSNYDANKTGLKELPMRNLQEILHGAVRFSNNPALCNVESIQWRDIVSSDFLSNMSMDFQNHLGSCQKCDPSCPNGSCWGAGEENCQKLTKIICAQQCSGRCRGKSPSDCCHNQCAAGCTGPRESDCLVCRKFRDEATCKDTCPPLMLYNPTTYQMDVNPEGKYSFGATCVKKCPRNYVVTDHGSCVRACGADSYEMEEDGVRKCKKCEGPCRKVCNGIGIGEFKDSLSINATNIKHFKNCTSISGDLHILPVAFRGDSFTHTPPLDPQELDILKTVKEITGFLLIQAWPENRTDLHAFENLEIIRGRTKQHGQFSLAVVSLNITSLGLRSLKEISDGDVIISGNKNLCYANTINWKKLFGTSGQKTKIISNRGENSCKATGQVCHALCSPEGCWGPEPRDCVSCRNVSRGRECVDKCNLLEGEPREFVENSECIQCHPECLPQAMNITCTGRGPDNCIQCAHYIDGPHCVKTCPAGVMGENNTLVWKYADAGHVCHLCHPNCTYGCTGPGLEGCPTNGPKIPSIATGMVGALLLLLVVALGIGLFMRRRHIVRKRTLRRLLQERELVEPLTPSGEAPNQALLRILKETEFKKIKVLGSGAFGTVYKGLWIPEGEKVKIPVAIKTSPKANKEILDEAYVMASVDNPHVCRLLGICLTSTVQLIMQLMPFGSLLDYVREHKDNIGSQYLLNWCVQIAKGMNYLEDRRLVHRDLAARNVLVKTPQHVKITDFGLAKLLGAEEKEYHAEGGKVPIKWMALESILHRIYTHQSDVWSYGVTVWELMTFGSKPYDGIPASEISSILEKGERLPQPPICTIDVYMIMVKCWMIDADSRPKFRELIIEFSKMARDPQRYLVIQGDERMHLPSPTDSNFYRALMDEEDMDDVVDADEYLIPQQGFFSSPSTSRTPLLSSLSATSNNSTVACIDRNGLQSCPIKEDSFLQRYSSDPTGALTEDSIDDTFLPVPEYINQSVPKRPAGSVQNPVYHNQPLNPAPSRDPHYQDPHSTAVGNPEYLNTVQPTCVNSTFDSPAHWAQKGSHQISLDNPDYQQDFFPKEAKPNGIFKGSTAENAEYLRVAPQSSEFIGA
From the text: (§1) Experimental objective: The objective of this test example is to test the inhibitory activity of compounds on the proliferation of different EGFR C797S drug-resistant mutant cell lines Ba/F3 EGFR Del19/T790M/C797S, Ba/F3 EGFR L858R/T790M/C797S, and Ba/F3 EGFR Del19/C797S.
(§2) • Ba/F3 EGFR Del19/T790M/C797S cells were purchased from KYinno Biotechnology Co., Ltd.; • Ba/F3 EGFR Del19/C797S cells were purchased from CoBioer Biosciences Co., Ltd.; • Ba/F3 EGFR L858R/T790M/C797S cells were purchased from CoBioer Biosciences Co., Ltd.; • Cell Titer-Glo was purchased from Promega, with a catalog number of G7573; • RPMI 1640 was purchased from Gibco, with a catalog number of 22400089; • FBS was purchased from Gibco, with a catalog number of 10091148; • cell culture plates were purchased from Corning, with a catalog number of 3610.
(§3) The inhibitory activity of the compound on the proliferation of different EGFR C797S drug-resistant mutant cell lines was detected using the Cell Titer-Glo method. The different cell lines were cultured in RPMI 1640 complete culture medium containing 10% FBS under conditions of 37° C. and 5% CO2, the cells were collected by centrifugation when growing to a certain density, and adjusted to appropriate cell density after counting, the cells were spread on a white 96-well plate at 90 μL/well, and cultured in a 37° C., 5% CO2 incubator overnight, prepared compound solutions of different concentrations were added at 10 μL/well, corresponding solvent controls were set, and all wells were cultured in a 37° C., 5% CO2 incubator for 72 hours, 50 μL of CellTiter-Glo solution was added to each well, shook and mixed evenly, and incubated in the dark for 10 minutes, and a BioTek Synergy H1 microplate reader was used for reading.
(§4) The luminescence signal value was used to calculate the inhibition rate. Graphpad Prism software was used to fit the concentration and inhibition rate to a nonlinear regression curve, so as to obtain the IC50 value, as shown in the Table below for details.

[4] = molecular target: Ba/F3 EGFR L858R/T790M/C797S cells (Homo sapiens, UniProt P00533, T790M/C797S/L858R, cells depend on it); assay: Cell proliferation inhibition (Cell Titer-Glo), Ba/F3 EGFR L858R/T790M/C797S; format: cell-based, mouse; details: 72 hours, CellTiter-Glo, read-out: Ba/F3 EGFR L858R_T790M_C797S IC50
Chain of Ba/F3 EGFR L858R/T790M/C797S cells (P00533 whole entry T790M/C797S/L858R): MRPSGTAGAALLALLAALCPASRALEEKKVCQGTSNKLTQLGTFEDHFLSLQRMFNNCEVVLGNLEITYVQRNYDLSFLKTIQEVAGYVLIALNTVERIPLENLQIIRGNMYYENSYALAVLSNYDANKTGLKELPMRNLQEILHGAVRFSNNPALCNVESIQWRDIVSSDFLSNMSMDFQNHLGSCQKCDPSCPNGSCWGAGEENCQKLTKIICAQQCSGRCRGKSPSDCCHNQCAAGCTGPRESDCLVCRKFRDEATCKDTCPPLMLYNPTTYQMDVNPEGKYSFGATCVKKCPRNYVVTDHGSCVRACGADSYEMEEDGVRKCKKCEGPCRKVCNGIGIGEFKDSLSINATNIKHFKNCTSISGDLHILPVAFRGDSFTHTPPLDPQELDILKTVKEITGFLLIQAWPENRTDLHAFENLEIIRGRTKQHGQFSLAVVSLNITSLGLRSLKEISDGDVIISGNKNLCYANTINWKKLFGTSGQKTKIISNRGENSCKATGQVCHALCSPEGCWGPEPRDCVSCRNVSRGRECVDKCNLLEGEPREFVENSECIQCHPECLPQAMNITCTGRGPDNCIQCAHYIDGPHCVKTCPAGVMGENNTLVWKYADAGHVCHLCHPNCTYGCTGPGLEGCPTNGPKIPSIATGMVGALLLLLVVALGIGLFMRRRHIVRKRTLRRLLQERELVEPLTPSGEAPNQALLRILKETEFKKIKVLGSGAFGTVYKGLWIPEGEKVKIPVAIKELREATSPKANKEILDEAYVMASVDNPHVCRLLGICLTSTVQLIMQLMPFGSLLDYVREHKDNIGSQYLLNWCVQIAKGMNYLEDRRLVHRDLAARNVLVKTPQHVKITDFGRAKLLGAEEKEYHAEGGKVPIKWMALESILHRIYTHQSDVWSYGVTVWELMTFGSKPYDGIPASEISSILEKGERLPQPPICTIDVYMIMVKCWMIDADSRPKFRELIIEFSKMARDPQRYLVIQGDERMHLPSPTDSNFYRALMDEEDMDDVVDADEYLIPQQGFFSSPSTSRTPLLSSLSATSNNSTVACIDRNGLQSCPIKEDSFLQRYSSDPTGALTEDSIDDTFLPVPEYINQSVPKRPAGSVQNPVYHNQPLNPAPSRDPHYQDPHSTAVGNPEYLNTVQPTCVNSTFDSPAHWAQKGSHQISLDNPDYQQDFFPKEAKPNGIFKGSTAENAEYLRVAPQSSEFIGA
From the text: as §1, §2, §3, §4

Row | Structure (SMILES) | AUC(0-t) [1] [ng·h/mL] | Cmax [1] [ng/mL] | half-life [1] [h] | GI50 [2] [nM] | GI50 [3] [nM] | GI50 [4] [nM]
1 | Cc1nn(C)cc1-c1nccc(Nc2cc3c(C(C)C)ccc(N4C[C@H](CS(C)(=O)=O)[C@H]4C)c3cn2)n1 [Example 1, N-(2-(1,3-dimethyl-1H-pyrazolyl-4-yl)pyrimidin-4-yl)-5-isopropyl-8-((2R,3S)-2-methyl-3-((methanesulfonyl)methyl)azabut-1-yl)isoquinolin-3-amine] | 1410 | 287 | 2.7 | 12 | 4.5 | 
2 | CC(C)c1c(F)cc(N2C[C@H](CS(C)(=O)=O)[C@H]2C)c2cnc(Nc3ccnc(-c4cn(C)nc4Cl)n3)cc12 [Example 120, N-(2-(3-chloro-1-methyl-1H-pyrazol-4-yl)pyrimidin-4-yl)-6-fluoro-5-isopropyl-8-((2R,3S)-2-methyl-3-((methanesulfonyl)methyl)azetidin-1-yl)isoquinolin-3-amine] |  |  |  | 11 | 7.1 | 14
3 | CC(C)c1c(F)cc(N2C[C@H](N(C)S(C)(=O)=O)[C@H]2C)c2cnc(Nc3ccnc(-c4cn(C)nc4Cl)n3)cc12 [Example 121, N-((2R,3S)-1-(3-((2-(3-chloro-1-methyl-1H-pyrazol-4-yl)pyrimidin-4-yl)amino)-6-fluoro-5-isopropylisoquinolin-8-yl)-2-methylazetidin-3-yl)-N-methyl methanesulfonamide] |  |  |  | 6.2 | 4.5 | 15
4 | Cc1nn(C)cc1-c1nccc(Nc2cc3c(C(C)C)ccc(N4C[C@H](N(C)S(C)(=O)=O)[C@H]4C)c3cn2)n1 [Example 126, N-((2R,3S)-1-(3-((2-(1,3-dimethyl-1H-pyrazol-4-yl)pyrimidin-4-yl)amino)-5-isopropylisoquinolin-8-yl)-2-methylazetidin-3-yl)-N-methyl methanesulfonamide] | 3140 | 240 | 3.3 | 3 | 2.1 | 7.5
5 | CC(C)c1cnc(N2C[C@H](CS(C)(=O)=O)[C@H]2C)c2cnc(Nc3ccnc(-c4cn(C)nc4Cl)n3)cc12 [Example 132, N-(2-(3-chloro-1-methyl-1H-pyrazol-4-yl)pyrimidin-4-yl)-5-isopropyl-8-((2R,3S)-2-methyl-3-((methanesulfonyl)methyl)azetidin-1-yl)-2,7-diazanaphthalen-3-amine] | 1570 | 180 | 3 | 6.4 | 5.6 | 15
6 | CC(C)c1ccc(N2C[C@H](CS(C)(=O)=O)[C@H]2C)c2cnc(Nc3ccnc(-c4cn(C[C@@H]5CCO5)nc4Cl)n3)cc12 [Example 182, N-(2-(3-chloro-1-(((S)-oxetan-2-yl)methyl)-1H-pyrazol-4-yl)pyrimidin-4-yl)-5-isopropyl-8-((2R,3S)-2-methyl-3-((methanesulfonyl)methyl)azetidin-1-yl)isoquinolin-3-amine] |  |  |  |  | 4.4 | 10

Other lines, results leading:

Row | AUC(0-t) [1] [ng·h/mL] | Cmax [1] [ng/mL] | half-life [1] [h] | GI50 [2] [nM] | GI50 [3] [nM] | GI50 [4] [nM] | Structure (SMILES)
7 | 1260 | 239 | 4.1 | 5.1 | 3.7 | 11 | CC(C)c1ccc(N2C[C@H](CS(C)(=O)=O)[C@H]2C)c2cnc(Nc3ccnc(-c4cn(C)nc4Cl)n3)cc12 [Example 5, N-(2-(3-chloro-1-methyl-1H-pyrazol-4-yl)pyrimidin-4-yl)-5-isopropyl-8-((2R,3S)-2-methyl-3-((methanesulfonyl)methyl)azabut-1-yl)isoquinolin-3-amine]
8 |  |  |  | 5.1 | 5.1 | 13 | [2H]C([2H])([2H])n1cc(-c2nccc(Nc3cc4c(C(C)C)ccc(N5C[C@H](CS(C)(=O)=O)[C@H]5C)c4cn3)n2)c(Cl)n1 [Example 6, N-(2-(3-chloro-1-(methyl-d3)-1H-pyrazol-4-yl)pyrimidin-4-yl)-5-isopropyl-8-((2R,3S)-2-methyl-3-((methylsulfonyl)methyl)azetidin-1-yl)isoquinolin-3-amine]
9 | 2170 | 186 | 2.7 | 3.2 | 4 |  | CC(C)c1ccc(N2CC(N(C)S(C)(=O)=O)C2)c2cnc(Nc3ccnc(-c4cn(C)nc4Cl)n3)cc12 [Example 67, N-(1-(3-((2-(3-chloro-1-methyl-1H-pyrazol-4-yl)pyrimidin-4-yl)amino)-5-isopropylisoquinolin-8-yl)azetidin-3-yl)-N-methyl methanesulfonamide]
10 | 1260 | 97 | 3.5 | 5.1 | 2.9 | 8.2 | CC(C)c1ccc(N2C[C@H](N(C)S(C)(=O)=O)[C@H]2C)c2cnc(Nc3ccnc(-c4cn(C)nc4Cl)n3)cc12 [Example 122, N-((2R,3S)-1-(3-((2-(3-chloro-1-methyl-1H-pyrazol-4-yl)pyrimidin-4-yl)amino)-5-isopropylisoquinolin-8-yl)-2-methylazetidin-3-yl)-N-methyl methanesulfonamide]
11 |  |  |  | 6.5 | 3.3 | 13 | CC(C)c1ccc(N2C[C@H](NS(C)(=O)=O)[C@H]2C)c2cnc(Nc3ccnc(-c4cn(C)nc4Cl)n3)cc12 [Example 123, N-((2R,3S)-1-(3-((2-(3-chloro-1-methyl-1H-pyrazol-4-yl)pyrimidin-4-yl)amino)-5-isopropylisoquinolin-8-yl)-2-methylazetidin-3-yl)methanesulfonamide]
12 |  |  |  | 2.6 | 5.9 | 8.8 | CC(C)c1c(F)cc(N2C[C@H](NS(C)(=O)=O)[C@H]2C)c2cnc(Nc3ccnc(-c4cn(C)nc4Cl)n3)cc12 [Example 186, N-((2R,3S)-1-(3-((2-(3-chloro-1-methyl-1H-pyrazol-4-yl)pyrimidin-4-yl)amino)-6-fluoro-5-isopropylisoquinolin-8-yl)-2-methylazetidin-3-yl)methanesulfonamide]

— patent US20250206718A1, “NITROGEN-CONTAINING HETEROCYCLIC DERIVATIVE INHIBITOR, PREPARATION METHOD THEREFOR AND USE THEREOF” (SHANGHAI HANSOH BIOMEDICAL CO., LTD., priority 2022, published 2025)
